Measurements from the supplement of paper PMC10733146.

Columns and labels:
Assay in all cases: viability relative to DMSO control (fraction); higher = less drug effect (more viable cells)
Conditions in all cases: 48 h
Ribociclib = compound: CN(C)C(=O)c1cc2cnc(Nc3ccc(N4CCNCC4)cn3)nc2n1C1CCCC1 [Ribociclib]
Summary of the method: (§1)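 In 384-well plates with compounds pre-plated at five concentrations (one well per concentration), primary mononuclear tumour cells were plated at 4 × 10^4 cells per well. The cells came from blood or bone marrow by Ficoll isolation or from processed lymph node, and were used fresh or cryopreserved. Culture ran for 48 h at 37 °C and 5% CO2 in RPMI-1640 containing penicillin/streptomycin, L-glutamine and human serum. Viability was read as CellTiter-Glo luminescence, normalised to the median of 16 inner DMSO wells.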

Cladribine = compound: Nc1nc(Cl)nc2c1ncn2[C@H]1C[C@H](O)[C@@H](CO)O1 [Cladribine]
Summary of the method: as §1

[1] = compound: OCc1ccc(-c2ccc(-c3ccc(CO)s3)o2)s1
Summary of the method: as §1

Birinapant = compound: CC[C@H](NC(=O)[C@H](C)NC)C(=O)N1C[C@@H](O)C[C@H]1Cc1c(-c2[nH]c3cc(F)ccc3c2C[C@@H]2C[C@H](O)CN2C(=O)[C@H](CC)NC(=O)[C@H](C)NC)[nH]c2cc(F)ccc12 [Birinapant]
Summary of the method: as §1

Vorinostat = compound: O=C(CCCCCCC(=O)Nc1ccccc1)NO [Vorinostat]
Summary of the method: as §1

8-Azaguanin = compound: Nc1nc2n[nH]nc2c(=O)[nH]1 [8-Azaguanin]
Summary of the method: as §1

ERK5-IN-1 = compound: CCOc1cc(C(=O)N2CCC(N3CCN(C)CC3)CC2)ccc1Nc1ncc2c(n1)N(C1CCCC1)c1ccccc1C(=O)N2C [ERK5-IN-1]
Summary of the method: as §1

Obatoclax mesylate = compound: COC1=CC(c2cc3ccccc3[nH]2)=N/C1=C\c1[nH]c(C)cc1C [Obatoclax mesylate]
Summary of the method: as §1

Tozasertib = compound: Cc1cc(Nc2cc(N3CCN(C)CC3)nc(Sc3ccc(NC(=O)C4CC4)cc3)n2)n[nH]1 [Tozasertib]
Summary of the method: as §1

Pralatrexate = compound: C#CCC(Cc1cnc2nc(N)nc(N)c2n1)c1ccc(C(=O)N[C@@H](CCC(=O)O)C(=O)O)cc1 [Pralatrexate]
Summary of the method: as §1

AG-221 (Enasidinib) = compound: CC(C)(O)CNc1nc(Nc2ccnc(C(F)(F)F)c2)nc(-c2cccc(C(F)(F)F)n2)n1 [AG-221 (Enasidinib)]
Summary of the method: as §1

AZD7762 = compound: NC(=O)Nc1cc(-c2cccc(F)c2)sc1C(=O)N[C@H]1CCCNC1 [AZD7762]
Summary of the method: as §1

Pacritinib = compound: C1=N/C2=N/c3ccc(OCCN4CCCC4)c(c3)COC/C=C/COCc3cccc(c3)C(=C1)N2 [Pacritinib]
Summary of the method: as §1

BEZ235 = compound: Cn1c(=O)n(-c2ccc(C(C)(C)C#N)cc2)c2c3cc(-c4cnc5ccccc5c4)ccc3ncc21 [BEZ235]
Summary of the method: as §1

Iniparib = compound: NC(=O)c1ccc(I)c([N+](=O)[O-])c1 [Iniparib]
Summary of the method: as §1

Test System: primary DLBCL patient cells (S082)
- viability (Ribociclib; 0.024 µM): 0.925
- viability (Ribociclib; 0.12 µM): 0.946
- viability (Ribociclib; 0.6 µM): 0.935
- viability (Ribociclib; 3 µM): 0.938
- viability (Ribociclib; 15 µM): 1.02
- viability (Cladribine; 0.024 µM): 0.858
- viability (Cladribine; 0.12 µM): 0.613
- viability (Cladribine; 0.6 µM): 0.476
- viability (Cladribine; 3 µM): 0.442
- viability (Cladribine; 15 µM): 0.399
- viability ([1]; 0.024 µM): 0.929
- viability ([1]; 0.12 µM): 1.02
- viability ([1]; 0.6 µM): 0.84
- viability ([1]; 3 µM): 0.904
- viability ([1]; 15 µM): 0.622
- viability (Birinapant; 0.0008 µM): 0.923
- viability (Birinapant; 0.004 µM): 1.04
- viability (Birinapant; 0.02 µM): 1.12
- viability (Birinapant; 0.1 µM): 1.09
- viability (Birinapant; 0.5 µM): 1.06
- viability (Vorinostat; 0.016 µM): 1.01
- viability (Vorinostat; 0.08 µM): 0.914
- viability (Vorinostat; 0.4 µM): 0.636
- viability (Vorinostat; 2 µM): 0.0663
- viability (Vorinostat; 10 µM): 0.0248
- viability (8-Azaguanin; 0.032 µM): 1.01
- viability (8-Azaguanin; 0.16 µM): 1.05
- viability (8-Azaguanin; 0.8 µM): 0.976
- viability (8-Azaguanin; 4 µM): 0.918
- viability (8-Azaguanin; 20 µM): 0.531
- viability (ERK5-IN-1; 0.024 µM): 0.854
- viability (ERK5-IN-1; 0.12 µM): 0.818
- viability (ERK5-IN-1; 0.6 µM): 0.621
- viability (ERK5-IN-1; 3 µM): 0.265
- viability (ERK5-IN-1; 15 µM): 0.224
- viability (Obatoclax mesylate; 0.024 µM): 0.989
- viability (Obatoclax mesylate; 0.12 µM): 1.34
- viability (Obatoclax mesylate; 0.6 µM): 1.58
- viability (Obatoclax mesylate; 3 µM): 1.41
- viability (Obatoclax mesylate; 15 µM): 0.681
- viability (Tozasertib; 0.024 µM): 0.94
- viability (Tozasertib; 0.12 µM): 0.892
- viability (Tozasertib; 0.6 µM): 0.821
- viability (Tozasertib; 3 µM): 0.618
- viability (Tozasertib; 15 µM): 0.364
- viability (Pralatrexate; 0.024 µM): 1.02
- viability (Pralatrexate; 0.12 µM): 1.15
- viability (Pralatrexate; 0.6 µM): 0.992
- viability (Pralatrexate; 3 µM): 1.08
- viability (Pralatrexate; 15 µM): 1.05
- viability (AG-221 (Enasidinib); 0.024 µM): 0.848
- viability (AG-221 (Enasidinib); 0.12 µM): 0.871
- viability (AG-221 (Enasidinib); 0.6 µM): 1.09
- viability (AG-221 (Enasidinib); 3 µM): 1
- viability (AG-221 (Enasidinib); 15 µM): 1.06
- viability (AZD7762; 0.024 µM): 0.76
- viability (AZD7762; 0.12 µM): 0.417
- viability (AZD7762; 0.6 µM): 0.122
- viability (AZD7762; 3 µM): 0.152
- viability (AZD7762; 15 µM): 0.125
- viability (Pacritinib; 0.024 µM): 0.963
- viability (Pacritinib; 0.12 µM): 0.972
- viability (Pacritinib; 0.6 µM): 0.916
- viability (Pacritinib; 3 µM): 0.543
- viability (Pacritinib; 15 µM): 0.0168
- viability (BEZ235; 0.024 µM): 0.931
- viability (BEZ235; 0.12 µM): 1.05
- viability (BEZ235; 0.6 µM): 0.958
- viability (BEZ235; 3 µM): 1.07
- viability (BEZ235; 15 µM): 0.737
- viability (Iniparib; 0.024 µM): 1.09
- viability (Iniparib; 0.12 µM): 1.06
- viability (Iniparib; 0.6 µM): 1.01
- viability (Iniparib; 3 µM): 1.06
- viability (Iniparib; 15 µM): 1.01

Test System: primary FL patient cells (S022)
- viability (Ribociclib; 0.024 µM): 1.01
- viability (Ribociclib; 0.12 µM): 1.01
- viability (Ribociclib; 0.6 µM): 1.02
- viability (Ribociclib; 3 µM): 0.941
- viability (Ribociclib; 15 µM): 0.737
- viability (Cladribine; 0.024 µM): 0.814
- viability (Cladribine; 0.12 µM): 0.827
- viability (Cladribine; 0.6 µM): 0.55
- viability (Cladribine; 3 µM): 0.447
- viability (Cladribine; 15 µM): 0.333
- viability ([1]; 0.024 µM): 0.946
- viability ([1]; 0.12 µM): 1.05
- viability ([1]; 0.6 µM): 0.969
- viability ([1]; 3 µM): 1.02
- viability ([1]; 15 µM): 0.512
- viability (Birinapant; 0.0008 µM): 0.862
- viability (Birinapant; 0.004 µM): 0.874
- viability (Birinapant; 0.02 µM): 0.965
- viability (Birinapant; 0.1 µM): 0.884
- viability (Birinapant; 0.5 µM): 0.903
- viability (Vorinostat; 0.016 µM): 0.992
- viability (Vorinostat; 0.08 µM): 0.932
- viability (Vorinostat; 0.4 µM): 0.874
- viability (Vorinostat; 2 µM): 0.795
- viability (Vorinostat; 10 µM): 0.26
- viability (8-Azaguanin; 0.032 µM): 0.987
- viability (8-Azaguanin; 0.16 µM): 1.01
- viability (8-Azaguanin; 0.8 µM): 0.843
- viability (8-Azaguanin; 4 µM): 0.582
- viability (8-Azaguanin; 20 µM): 0.363
- viability (ERK5-IN-1; 0.024 µM): 1.02
- viability (ERK5-IN-1; 0.12 µM): 0.957
- viability (ERK5-IN-1; 0.6 µM): 0.902
- viability (ERK5-IN-1; 3 µM): 0.951
- viability (ERK5-IN-1; 15 µM): 0.544
- viability (Obatoclax mesylate; 0.024 µM): 1.04
- viability (Obatoclax mesylate; 0.12 µM): 0.971
- viability (Obatoclax mesylate; 0.6 µM): 0.71
- viability (Obatoclax mesylate; 3 µM): 0.486
- viability (Obatoclax mesylate; 15 µM): 0.109
- viability (Tozasertib; 0.024 µM): 0.996
- viability (Tozasertib; 0.12 µM): 0.882
- viability (Tozasertib; 0.6 µM): 0.949
- viability (Tozasertib; 3 µM): 0.807
- viability (Tozasertib; 15 µM): 0.814
- viability (Pralatrexate; 0.024 µM): 1
- viability (Pralatrexate; 0.12 µM): 0.996
- viability (Pralatrexate; 0.6 µM): 1
- viability (Pralatrexate; 3 µM): 1.04
- viability (Pralatrexate; 15 µM): 1.02
- viability (AG-221 (Enasidinib); 0.024 µM): 0.807
- viability (AG-221 (Enasidinib); 0.12 µM): 0.799
- viability (AG-221 (Enasidinib); 0.6 µM): 0.781
- viability (AG-221 (Enasidinib); 3 µM): 0.67
- viability (AG-221 (Enasidinib); 15 µM): 0.687
- viability (AZD7762; 0.024 µM): 0.724
- viability (AZD7762; 0.12 µM): 0.79
- viability (AZD7762; 0.6 µM): 0.725
- viability (AZD7762; 3 µM): 0.785
- viability (AZD7762; 15 µM): 0.655
- viability (Pacritinib; 0.024 µM): 0.96
- viability (Pacritinib; 0.12 µM): 1.09
- viability (Pacritinib; 0.6 µM): 0.998
- viability (Pacritinib; 3 µM): 0.429
- viability (Pacritinib; 15 µM): 0.0378
- viability (BEZ235; 0.024 µM): 0.885
- viability (BEZ235; 0.12 µM): 0.977
- viability (BEZ235; 0.6 µM): 0.887
- viability (BEZ235; 3 µM): 0.827
- viability (BEZ235; 15 µM): 0.153
- viability (Iniparib; 0.024 µM): 1.1
- viability (Iniparib; 0.12 µM): 0.916
- viability (Iniparib; 0.6 µM): 0.945
- viability (Iniparib; 3 µM): 0.937
- viability (Iniparib; 15 µM): 0.92
